Experimental data reported in paper PMC11459959, “Discovery of new acetamide derivatives of 5-indole-1,3,4-oxadiazol-2-thiol as inhibitors of HIV-1 Tat-mediated viral transcription” (Antimicrobial Agents and Chemotherapy, 2024).
Like-named read-outs stand apart in the source and are kept apart here.

Assays:
[1] = test system: Tat-mediated LTR transcription; assay: Dual-reporter assay, F-Luc (Tat-mediated LTR transcription) in bl-DTR cells; type: cell-based, HIV-1; details: for inhibitory effect on Tat (in words): F-Luc; for IC50: Human immunodeficiency virus 1, 24 h, read-out: IC50 of F-Luc (Tat)
Protocol: (§1) Fig 1 (A) (Top panel) Schematic representation of the primary compound screening using a dual-reporter system. […] (B). […] (Top graphs) bl-DTR cells (1 × 10^4) were treated with twofold serial dilutions of each compound before doxycycline (Dox) addition (final concentration, 50 ng/mL). After 24 h of treatment, the activities of firefly luciferase (F-Luc, red line) and Renilla luciferase (R-Luc, blue line) were determined using the Dual-Glo Luciferase assay system. (Bottom graphs) TZM-bl cells were treated with each indicated compound and subsequently infected with the HIV-1NL4-3 strain at a multiplicity of infection (MOI) of 1. At 48 h after infection, the viral infectivity (purple line) and cell viability (green line) were determined using the Bright-Glo luciferase assay kit and the PrestoBlue Cell Viability Reagent, respectively. […] (C). […] The targeted moieties for the SAR study are marked with dotted-circle lines.
(§2) The Tzm-bl-derived dual Tat reporter; TZM-bl/Tat/Rluc (bl-DTR) cells were established from TZM-bl cells using two Dox-inducible lentiviral expression cassettes cloned with Flag-tagged Tat86 and the R-Luc gene, as described in our previous study ([11]). TZM-bl, A3.01, J1.1, and J-Lat 6.3 cells as well as the HIV-1 molecular clone pNL4-3, pNL(AD8), ARV-resistant HIV-1 strains, and HIV-1NL43-IRES-eGFP (pBR43IeG-nef^+, gifted by Dr. Frank Kirchhoff) ([52]) were provided by the National Institute of Health HIV Reagent Program (NIH, Bethesda, MD, USA). HeLa (CCL-2) and 293T (CRL-3216) cell lines were purchased from the American Type Culture Collection (ATCC, Manassas, VA, USA). The bl-DTR, TZM-bl, HeLa, and 293T cells were cultured in Dulbecco’s modified Eagle’s medium supplemented with 1% penicillin–streptomycin and 10% (vol/vol) heat-inactivated fetal bovine serum (all from Gibco-BRL, Gaithersburg, MD, USA), and 1 µg/mL of puromycin and 200 µg/mL of zeocin were additionally supplemented for the bl-DTR cells. PBMCs were purchased from AllCells (Alameda, CA, USA) and cultured as previously described ([12]). The information on ARV-resistant HIV-1 strains was described in previous reports as follows: NNRTI-resistant 12241 and 12243 ([53]); NRTI-resistant 7396, 7406, and 7407 ([54]); INSTI-resistant 11847 and 11849 ([55], [56]); and PI-resistant 11800 and 11803 ([57]). Each molecular HIV-1 clone was transfected to 293T cells, as previously described ([58]), to obtain infectious HIV-1 particles. Virus-containing cell culture supernatants were collected 3 days after transfection, and filtered through a 0.45-µm membrane filter (Millipore Sigma, Burlington, MA, USA) to remove cell debris. The viral titration was performed as described previously ([59]) with some minor modifications. In brief, 1 × 10^4 TZM-bl cells seeded in 96-well plates were infected with 200 µL of virus-containing medium diluted serially twofold. The incubation was for 2 days and the experiment was performed in triplicate; the infection time minimized the virus spread ([59]). The titration of the infectious viral particles was performed with a ß-Gal staining assay using the ßeta-Galactosidase Staining Kit (Mirus Bio, Madison, WI, USA) following the manufacturer’s protocols. In brief, the infected cells were washed with phosphate-buffered saline (PBS) and fixed using a Cell Fixative Working solution. The cells were washed with PBS and stained using the Cell Staining Working Solution containing X-gal. The infected blue-colored cells were counted under a microscope (100× magnification). The infectious virus titer was determined as a mean value of blue-colored cells count × dilution factor and used for determining the multiplicity of infection (MOI) in each infection experiment.

HIV-1NL4-3 = assay: HIV-1 infectivity in TZM-bl cells (F-Luc); type: cell-based; details: for inhibitory effect on HIV-1 infection (in words) / SI (CC50/EC50): TZM-bl cells; for inhibitory effect on HIV-1 infection (in words): HIV-1NL4-3; for EC50: Human immunodeficiency virus 1, TZM-bl, 48 h, TZM-bl cells infected with HIV-1NL4-3 at MOI 1, 48 h, F-Luc, mean ± SD
Protocol: (§3) The TZM-bl cells (also referred to as JC53BL-13) expressing human CD4, CXCR4, and CCR5 carrying the F-Luc and lacZ genes downstream of the HIV-1 LTR promoter ([60]) were used to determine the inhibitory effect of the compounds on HIV-1 infection, as previously described ([11], [12], [61]). In brief, 1 × 10^4 cells were cultured in 96-well plates for 24 h and subsequently treated with compounds at the indicated concentrations. Without replacement of the culture medium, the cells were subsequently infected with the HIV-1NL4-3 wild-type or ARV-resistant HIV-1 strains at an MOI of 1 to determine the exact inhibitory effect of compounds on a single-round infection. After 48 h, the inhibitory effect of the compounds was determined using a Bright Glo luciferase assay kit (Promega) or β-Galactosidase Enzyme Assay kit (Promega). The infectivity data were presented as a percentage relative to the dimethyl sulfoxide (DMSO) control (vehicle). Cell viability was determined using the resazurin-based PrestoBlue Cell Viability Reagent (Thermo Fisher Scientific, Waltham, MA, USA) following the manufacturer’s instructions.

[2] = Cell viability of TZM-bl cells (PrestoBlue); type: cell-based; details: human
Protocol: as §3

[3] = test system: general cellular transcription/translation (R-Luc); assay: Dual-reporter assay, R-Luc in bl-DTR cells; type: cell-based; details: doxycycline, 24 h
Protocol: as §1, §2

[4] = test system: HIV-1NL4-3 IRES-eGFP-nef+; assay: eGFP-encoding HIV-1 infection of TZM-bl cells; type: cell-based; details: 9, 10, 13 1.5 μM, 20, 21, 22 4 μM, seliciclib 10 µM, triptolide 5 nM, DTG 2 nM, EFV 2 nM, 2 days
Protocol: Fig 4 (A) Comparison of the chemical structures between prominent derivatives (9, 10, and 13) and non-functional derivatives (20, 21 and 22). (B) bl-DTR cells were treated with serial dilutions of each compound upon Dox for 24 h. The activities of F-Luc and R-Luc were determined using the Dual-Glo -Luciferase assay system. (C) TZM-bl cells were infected with the HIV-1NL4-3 strain at an MOI of 1 upon treatment of compounds. At 48 h after infection, the viral infectivity and cell viability were determined as described above (Fig. 1). (D) TZM-bl cells were infected with HIV-1NL4-3 IRES-eGFP virus along with the compound treatment. Two days later, GFP-expressing cells were observed by fluorescence microscopy (100× magnification). […] At 48 h after infection, the β-gal activity indicating viral infectivity was determined using the β-gal Enzyme Assay kit. F-Luc activity and cell viability were determined as described above (Fig. 4C). (C and E) The dose-response curves show the relative activity compared with that of the DMSO vehicle (mean ± SD; n = 3).

Molecule | inhibitory effect on Tat (in words) ([1]; bl-DTR cells) | inhibitory effect on HIV-1 infection (in words) (HIV-1NL4-3) | IC50 [1] [µM] | EC50 (HIV-1NL4-3; read-out: EC50) [µM] | SI (CC50/EC50) (HIV-1NL4-3) | CC50 at 48 h [2] [µM] | Relative R-Luc activity at IC50 of F-Luc [3] | inhibition of viral-expressed eGFP signal [4] | EC50 (HIV-1NL4-3) [µM] | LTR activity increase induced by adding prostratin ([1]; bl-DTR cells, Dox, sustained in the presence of compounds 9 or 13)
1-(Pyrrolidin-1-yl)-2-((5-(1,2,3-trimethyl-1H-indol-5-yl)-1,3,4-oxadiazol-2-yl)thio)ethan-1-one [Compound 19] | did not demonstrate any biological effect | did not demonstrate any biological effect | – | – | – | – | – | – | – | –
Cc1[nH]c2ccc(-c3nnc(SC(C)(C)C(=O)N4CCCCC4)o3)cc2c1C [Compound 12, 2-((5-(2,3-Dimethyl-1H-indol-5-yl)-1,3,4-oxadiazol-2-yl)thio)-2-methyl-1-(piperidin-1-yl)propan-1-one] | increased | increased | – | – | – | – | – | – | – | –
2-((5-(2,3-Dimethyl-1H-indol-5-yl)-1,3,4-oxadiazol-2-yl)thio)-1-(pyrrolidin-1-yl)propan-1-one [Compound 15] | increased | increased | – | – | – | – | – | – | – | –
Cc1[nH]c2ccc(-c3nnc(SC(C)C(=O)N4CCCC4)o3)cc2c1C (stereo not shown) [Compound 14, 2-((5-(2,3-Dimethyl-1H-indol-5-yl)-1,3,4-oxadiazol-2-yl)thio)-1-(pyrrolidin-1-yl)propan-1-one] | – | – | 3.82 ± 0.12 | 3.31 ± 0.28 | 17.44 | 57.7 ± 6.01 | >100 | – | – | –
Cc1[nH]c2ccc(-c3nnc(SC(C)C(=O)N4CCCCC4)o3)cc2c1C (stereo not shown) [Compound 11, 2-((5-(2,3-Dimethyl-1H-indol-5-yl)-1,3,4-oxadiazol-2-yl)thio)-1-(piperidin-1-yl)propan-1-one] | – | – | 0.43 ± 0.03 | 0.4 ± 0.05 | 67.85 | 27.1 ± 1.95 | 100 | – | – | –
Cc1[nH]c2ccc(-c3nnc(SCC(=O)N4CCCC(C)C4)o3)cc2c1C (stereo not shown) [Compound 10, 2-((5-(2,3-Dimethyl-1H-indol-5-yl)-1,3,4-oxadiazol-2-yl)thio)-1-(3-methylpiperidin-1-yl)ethan-1-one] | – | – | 1.1 ± 0.07 | 0.56 ± 0.05 | 147.27 | 82.5 ± 6.41 | >100 | remarkably inhibited | – | –
O=C(O)CCSc1nnc(-c2cccc3ccccc23)o1 [Compound A, 3-((5-(Naphthalen-1-yl)-1,3,4-oxadiazol-2-yl)thio)propanoic acid] | – | – | 4 | – | – | – | – | – | 4.19 | –
Cc1[nH]c2ccc(-c3nnc(SCCN4CCCCC4)o3)cc2c1C [Compound 24, 2-(2,3-Dimethyl-1H-indol-5-yl)-5-((2-(piperidin-1-yl)ethyl)thio)-1,3,4-oxadiazole] | modest inhibitory effect | – | 1.97 ± 0.03 | 3.02 ± 0.09 | 13.34 | 40.3 ± 1.74 | >100 | – | – | –
Cc1[nH]c2ccc(-c3nnc(SCC(=O)N4CCCC4)n3CCc3ccccc3)cc2c1C [Compound 31, 2-((5-(2,3-Dimethyl-1H-indol-5-yl)-4-phenethyl-4H-1,2,4-triazol-3-yl)thio)-1-(pyrrolidin-1-yl)ethan-1-one] | – | – | 3.42 ± 0.12 | 5.89 ± 0.05 | 9.39 | 55.3 ± 10.2 | >100 | – | – | –
CC(=O)O[C@@]12C[C@@H](C)[C@@]3(O)[C@@H](C=C(CO)C[C@]4(O)C(=O)C(C)=C[C@@H]34)[C@@H]1C2(C)C [prostratin, reference compound] | – | – | – | – | – | – | – | – | – | ~ 1.5 fold
Cc1[nH]c2ccc(-c3nnc(SCC(=O)N4CCCCC4)n3C)cc2c1C [Compound 28, 2-((5-(2,3-Dimethyl-1H-indol-5-yl)-4-methyl-4H-1,2,4-triazol-3-yl)thio)-1-(piperidin-1-yl)ethan-1-one] | critical decrease of potency | critical decrease of potency | 13.7 ± 0.53 | 21.2 ± 1.47 | 1.74 | 36.8 ± 12.6 | 90 | – | – | –
Cc1[nH]c2ccc(-c3nnc(SCCN4CCCC4)o3)cc2c1C [Compound 25, 2-(2,3-Dimethyl-1H-indol-5-yl)-5-((2-(pyrrolidin-1-yl)ethyl)thio)-1,3,4-oxadiazole] | no effect was observed | no effect was observed | – | – | – | – | – | – | – | –
Cc1[nH]c2ccc(-c3nnc(SC(C)C(=O)N4CCCCC4)n3CCc3ccccc3)cc2c1C (stereo not shown) [Compound 30, 2-((5-(2,3-Dimethyl-1H-indol-5-yl)-4-phenethyl-4H-1,2,4-triazol-3-yl)thio)-1-(piperidin-1-yl)propan-1-one] | – | – | 1.74 ± 0.06 | 2.01 ± 0.11 | 11.26 | 22.6 ± 0.47 | 100 | – | – | –
Cc1[nH]c2ccc(-c3nnc(S(=O)(=O)CC(=O)N4CCCC4)o3)cc2c1C [Compound 22, 2-((5-(2,3-Dimethyl-1H-indol-5-yl)-1,3,4-oxadiazol-2-yl)sulfonyl)-1-(pyrrolidin-1-yl)ethan-1-one] | – | – | – | – | – | – | – | did not | – | –
Cc1[nH]c2ccc(-c3nnc(SCCC(=O)O)o3)cc2c1C [Compound B, 3-((5-(2,3-Dimethyl-1H-indol-5-yl)-1,3,4-oxadiazol-2-yl)thio)propanoic acid] | – | – | 2.29 ± 0.08 | 2.63 ± 0.34 | 16.97 | 44.6 ± 5.68 | >100 | – | – | –
Cc1[nH]c2ccc(-c3nnc(S)o3)cc2c1C [Compound 3b, 5-(2,3-Dimethyl-1H-indol-5-yl)-1,3,4-oxadiazole-2-thiol] | did not exhibit a substantial biological effect | did not exhibit a substantial biological effect | – | – | – | – | – | – | – | –
